Data set [1] deals with hypoxic cells (Chinese hamster cells line V-79). Kind of data set: Differential toxicity to hypoxic cells at 4 hours. Type of data set: cell-based. How it is done:
(§1) Asynchronous monolayers of cultures of Chinese hamster cells line V-79 were employed in all experiments. The monolayers were derived from exponentially growing cultures. Methods of culturing and handling have been reported earlier by Cooke et al, Rad. Res. 65, 152 (1976). The plated cultures were rendered hypoxic in sealed dural containers capable of holding seven petri dishes, by purging with nitrogen (oxygen-free grade) for one hour. Irradiation was carried out by using a cobalt-60 source at a dose rate of approximately 240 rad/min according to the procedure described by Agrawal et al Rad. Res. 78:532 (1979). A dose of 1400 rad was given to hypoxic cells in glass petri dishes in the presence of a given drug concentration (2000 cells/dish). Cell survival was estimated from unirradiated toxic hypoxic cells exposed to the same drug concentration. Complete survival curves were obtained for each compound at the radiation doses of 400 to 3000 rad. The Do value was calculated for each compound and the ratio of the Do value for the hypoxic control cells to the Do value of the hypoxic drug treated cells provided the sensitized enhancement ratio of the corresponding agent.
(§2) To determine toxicity in vitro, glass petri dishes containing approximately 200 Chinese hamster cells/dish were exposed to a range of concentrations of each drug for 2 hours and/or 4 hours at 37° C. Drug concentrations between 10 μM and 0.5 mM were employed initially.

Data set [2] in a line: In vitro cytotoxicity in oxic cells (% survival). The class given is cell-based, Chinese hamster. The note with it: hamster, v-79 cells, oxic; for viability at 2 h, 100 µM / viability at 4 h, 100 µM: 0.1 mM; for viability at 2 h, 500 µM / viability at 4 h, 500 µM: 0.5 mM. On the procedure:
as §1
(§3) Cultures were incubated for 6 days at 37° C. in an atmosphere of 5% CO2. The resulting colonies were fixed in absolute ethanol and stained with methylene blue and counted.
as §2

A further data set can be described thus: in vivo. The note with it: mouse, ip. On the procedure:
Neurotoxicity in mice was determined using mice of strain CDF1. This was carried out by (1) determining the LD50 of each compound in mice and (2) observing the animals for acute neurotoxic symptoms such as convulsions. The drugs were either solubilized or suspended in normal saline and administered intraperitoneally to groups of ten mice. […]

Data set [3] in a line: In vitro cytotoxicity in hypoxic cells (% survival). The class given is cell-based, Chinese hamster. The note with it: hamster, v-79 cells; for viability at 2 h, 100 µM / viability at 4 h, 100 µM: 0.1 mM; for viability at 2 h, 500 µM / viability at 4 h, 500 µM: 0.5 mM. On the procedure:
as §1, §3, §2

In data set [4] the test system is Chinese hamster cells line V-79. Kind of data set: Radiosensitization (enhancement ratio, cobalt-60 irradiation of hypoxic cells). Type of data set: cell-based. On the procedure:
as §1, §3

The subject of data set [5] is Chinese hamster cells line V-79 (oxic). Kind of data set: In vitro cytotoxicity in oxic cells (% survival). The class given is cell-based. The note with it: 4 hours, 240 min. On the procedure: as §1, §3, §2
For the next data set, the system named is hypoxic tumor cells. The note with it: cited from earlier work.
The test system of a further data set is central nervous system. The note with it: cited from earlier work.
Where [6] appears, read: 2 hours, read-out: In vitro cytoxicity in oxic cells (% survival at 2 hours).
[7] abbreviates: 4 hours, read-out: In vitro cytoxicity in oxic cells (% survival at 4 hours).
Where [8] appears, read: 2 hours, read-out: In vitro cytoxicity in hypoxic cells (% survival at 2 hours).
Where [9] appears, read: 4 hours, read-out: In vitro cytoxicity in hypoxic cells (% survival at 4 hours).
Where [10] appears, read: 2 hours, 0.01 mM, read-out: In vitro cytoxicity in oxic cells (% survival at 2 hours).
The mark [11] stands for this setting: 2 hours, 0.05 mM, read-out: In vitro cytoxicity in oxic cells (% survival at 2 hours).

SMILES strings stand for the structures. Read-outs that look alike come from different tables or passages of the source.

Turning to `O=[N+]([O-])c1nccn1[C@@H]1C=C[C@H](O)[C@@H](CO)O1` [A, 1(2',3didehydro-2',3dideoxy-D-erythro-hexopyranonyl)-2-nitroimidazole], the “Differential toxicity to hypoxic cells at 4 hours” value (“Differential toxicity” for short) in data set [1] is recorded as “Yes”. Besides, the viability at 2 h, 100 µM in data set [2] (setting [6]) was determined as 99%; in data set [3] (setting [8]), 97.3%. In addition, the viability at 2 h, 250 µM in data set [2] (2 hours, 0.25 mM, read-out: In vitro cytoxicity in oxic cells (% survival at 2 hours)) is 104%; in data set [3] (2 hours, 0.25 mM, read-out: In vitro cytoxicity in hypoxic cells (% survival at 2 hours)), 92%. In addition, the figures for the viability at 2 h, 500 µM in data set [2] (setting [6]) and in data set [3] (setting [8]) were 90% and 75.9%, respectively. Moreover, the viability at 2 h, 1000 µM is 82.4% in data set [2] (2 hours, 1.0 mM, read-out: In vitro cytoxicity in oxic cells (% survival at 2 hours)) and 59.6% in data set [3] (2 hours, 1.0 mM, read-out: In vitro cytoxicity in hypoxic cells (% survival at 2 hours)). Moreover, the viability at 4 h, 100 µM worked out at 99% in data set [2] (setting [7]) and 56.7% in data set [3] (setting [9]). Moreover, the viability at 4 h, 250 µM in data set [2] (4 hours, 0.25 mM, read-out: In vitro cytoxicity in oxic cells (% survival at 4 hours)) was found to be 104%; in data set [3] (4 hours, 0.25 mM, read-out: In vitro cytoxicity in hypoxic cells (% survival at 4 hours)) it was 26.7%. Besides, the LD50 (usually the dose expected to kill half of the subjects tested) at 24 h in “in vivo” was determined as 3300 mg/kg. For the same molecule, in data set [3] (setting [9]), the viability at 4 h, 500 µM is 15.8%. Moreover, the viability at 4 h, 1000 µM in data set [3] (4 hours, 1.0 mM, read-out: In vitro cytoxicity in hypoxic cells (% survival at 4 hours)) was determined as 0%. In addition, the entries for the “Radiosensitization (enhancement ratio in Chinese hamster cells)” value in data set [4] (0.25 mM) and in data set [4] (0.5 mM) were 2.0 and 2.2, respectively.

For `CC(=O)OC[C@H]1O[C@H](n2ccnc2[N+](=O)[O-])C=C[C@@H]1OC(C)=O` [B, 1(4',6di-O--acetyl2',3didehydro-2',3dideoxy-D-erythro-hexopyranosyl)-2-ni roimidazole], the “Differential toxicity” value in data set [1] is given as “Yes”. The viability at 2 h, 10 µM in data set [2] (setting [10]) stood at 106%. For the same molecule, the viability at 2 h, 50 µM in data set [2] (setting [11]) turned out to be 100%. Further, in data set [2] (setting [6]), the viability at 2 h, 100 µM was 103% and the viability at 2 h, 500 µM worked out at 100%. The viability at 4 h, 10 µM in data set [2] (4 hours, 0.01 mM, read-out: In vitro cytoxicity in oxic cells (% survival at 4 hours)) was determined as 100%. Also, the viability at 4 h, 50 µM in data set [2] (4 hours, 0.05 mM, read-out: In vitro cytoxicity in oxic cells (% survival at 4 hours)) was found to be 100%. In addition, in data set [2] (setting [7]), the viability at 4 h, 100 µM was found to be 101% and the viability at 4 h, 500 µM came to 102%. Also, in data set [3] (setting [8]), the viability at 2 h, 100 µM amounted to 90.9% and the viability at 2 h, 500 µM amounted to 100%. In addition, in data set [3] (setting [9]), the viability at 4 h, 100 µM is 96% and the viability at 4 h, 500 µM is 60.3%. Further, the “Radiosensitization (enhancement ratio in Chinese hamster cells)” value in data set [4] (0.5 mM) amounted to 2.0.

As for `CC(=O)OC[C@H]1O[C@@H](n2ccnc2[N+](=O)[O-])C=C[C@@H]1OC(C)=O` [C, 1(4',6di-O--acetyl2',3didehydro-2',3dideoxy-D-erythro-hexopyranosyl)-2-ni roimidazole], the “Differential toxicity” value in data set [1] is on record as “Yes”. Also, the viability at 2 h, 10 µM in data set [2] (setting [10]) was 101%. Moreover, the viability at 2 h, 50 µM in data set [2] (setting [11]) was 100%. The viability at 2 h, 100 µM in data set [2] (setting [6]) was found to be 95%; in data set [3] (setting [8]), 104%. For the same molecule, the viability at 2 h, 500 µM in data set [2] (setting [6]) turned out to be 97%; in data set [3] (setting [8]), 92.6%. For the same molecule, the viability at 4 h, 100 µM in data set [2] (setting [7]) amounted to 101%; in data set [3] (setting [9]), 86.6%. The results for the viability at 4 h, 500 µM in data set [2] (setting [7]) and in data set [3] (setting [9]) were 103% and 41.1%, respectively. Also, the “In vitro cytoxicity in oxic cells (% survival at 4 hours)” value in data set [5] (0.1 mM, 100 µM) is reported as 94%; in data set [5] (0.5 mM, 500 µM) it was 88%. The “Radiosensitization (enhancement ratio in Chinese hamster cells)” value in data set [4] (0.5 mM) worked out at 1.6.

For `COCC(O)Cn1ccnc1[N+](=O)[O-]` (centres unmarked) [N, Misonidazole], the “Differential toxicity” value in data set [1] was “Yes”. In addition, in the data set on hypoxic tumor cells, the effectiveness in vivo result is on record as “effective in vivo”. In addition, the “side effects in mice” value in the data set with central nervous system (administered orally) was “peripheral neuropathy and convulsions in mice”. In the data set on central nervous system (use in humans), the “central nervous system toxicity” value is “central nervous system toxicity is a limiting factor for their use in humans”.

For `Cc1ncc([N+](=O)[O-])n1CCO` [O, Metronidazole], the “Differential toxicity” value in data set [1] is listed as “Yes”. Besides, the radiosensitization activity result in the data set on hypoxic tumor cells (in vivo and in vitro) is “active both in vivo and in vitro”. In addition, in the data set with hypoxic tumor cells, the effectiveness in vivo entry was “effective in vivo”. Moreover, the “side effects in mice” value with central nervous system (in vivo, po) was “peripheral neuropathy and convulsions in mice”. Besides, in the data set on central nervous system (in vivo), the “central nervous system toxicity” value was “central nervous system toxicity is a limiting factor for their use in humans”. Further, the “Radiosensitization (enhancement ratio in Chinese hamster cells)” value in data set [4] (1.0 mM) is 1.5.

(Values after US4462992A, “Nitroimidazole radiosensitizers for hypoxic tumor cells and compositions thereof” (priority 1982, dated 1984).)
